Results as given in patent US12630509B2, “Heterocyclic NMDA antagonists” (TAKEDA PHARMACEUTICAL COMPANY LIMITED, priority 2019, dated 2026).

molecular target: NMDA receptor composed of four subunits including two sets of heterodimers of NR1 and NR2B (GRIN1/GRIN2B) expressed in HEK 293 cells (Homo sapiens, UniProt Q13224); assay: NR2B Ca2+ influx assay; format: cell-based; settings: HEK293, final concentration 10 μM; glutamic acid and glycine induced Ca2+ influx, HEK 293 cells expressing human GRIN1 and GRIN2B; read-out: % inhibited(10 μM)
Protocol: The HEK 293 cells that express GRIN1 and GRIN2B were purchased from ChanTest (human NMDA (NR1/NR2B) receptor-expressing, stable replicating cell line (HEK 293) catalog no. CT6121).
Intracellular calcium-ion (Ca^2+) influx caused by glycine and glutamic acid respectively binding to NR1 and NR2B was used as an index of NMDA receptor activation.
The HEK 293 cells expressing GRIN1 and GRIN2B were cultured in a cell culture flask in an incubator (37° C., in 5% CO2) using a DMEM/F-12 (Cosmo Bio, 10-092-CM) medium supplemented with 10% FBS (fetal bovine serum, AusGene), 100 units/mL penicillin, 100 μg/mL streptomycin, 500 μg/mL neomycin, 100 μg/mL Zeocin (registered trademark of Invitrogen), and 5 μg/mL blasticidin.
On the day before the assay, the cells were detached from the flask by trypsinization, suspended in a seeding medium (DMEM (Invitrogen, 31053) supplemented with 10% FBS, 100 units/mL penicillin, and 100 μg/mL streptomycin) so as to be 8×10^5 cells/mL, seeded at 25 μL per well in a 384-well plate (Falcon, 356663) so as to be 20,000 cells/well, and cultured overnight using the incubator. On the day of the assay, tetracycline (Wako Pure Chemical, 209-16561) was diluted with the seeding medium at 2 μg/mL, and added at 25 μL/well to the plate into which the cells were seeded, and this was cultured for 2 hours in the incubator. Afterward, the medium was removed and washed with an assay buffer (137 mM NaCl, 4 mM KCl, 1.8 mM CaCl2), 10 mM HEPES (pH 7.2), 10 mM glucose, 0.1% BSA) at 50 μL/well. Next, a loading buffer (buffer wherein 2.5 μM Fluo-4 AM, 2 mM amaranth, and 1 mM tartrazine are added to the assay buffer) was added at 25 μL/well, and this was incubated in the incubator for 30 minutes and for 15 minutes at room temperature. Solutions wherein the Example compounds were diluted with the above-mentioned assay buffer so as to be 30 μM (final concentration 10 μM) were added at 25 μL/well, and these were left standing for 15 minutes at room temperature. Using FDSS7000EX/μCELL (Hamamatsu Photonics), an assay buffer including 30 μM glutamic acid and 30 μM glycine was added at 25 μL/well, and a fluorescence signal of an Excitation wavelength of 480 nm and an Emission wavelength of 540 nm was measured every 3 seconds for 5 minutes. The inhibitory activity was calculated as a relative activity value (inhibitory rate) wherein relative to an integrated value of florescence values of each well, an integrated value of fluorescence values of a well into which an assay buffer without glutamic acid and glycine was defined as 100% inhibition.

NMDA receptor composed of four subunits including two sets of heterodimers of NR1 and NR2B (GRIN1/GRIN2B) expressed in HEK 293 cells, sequence (Q13224 27-1484, other chains not shown): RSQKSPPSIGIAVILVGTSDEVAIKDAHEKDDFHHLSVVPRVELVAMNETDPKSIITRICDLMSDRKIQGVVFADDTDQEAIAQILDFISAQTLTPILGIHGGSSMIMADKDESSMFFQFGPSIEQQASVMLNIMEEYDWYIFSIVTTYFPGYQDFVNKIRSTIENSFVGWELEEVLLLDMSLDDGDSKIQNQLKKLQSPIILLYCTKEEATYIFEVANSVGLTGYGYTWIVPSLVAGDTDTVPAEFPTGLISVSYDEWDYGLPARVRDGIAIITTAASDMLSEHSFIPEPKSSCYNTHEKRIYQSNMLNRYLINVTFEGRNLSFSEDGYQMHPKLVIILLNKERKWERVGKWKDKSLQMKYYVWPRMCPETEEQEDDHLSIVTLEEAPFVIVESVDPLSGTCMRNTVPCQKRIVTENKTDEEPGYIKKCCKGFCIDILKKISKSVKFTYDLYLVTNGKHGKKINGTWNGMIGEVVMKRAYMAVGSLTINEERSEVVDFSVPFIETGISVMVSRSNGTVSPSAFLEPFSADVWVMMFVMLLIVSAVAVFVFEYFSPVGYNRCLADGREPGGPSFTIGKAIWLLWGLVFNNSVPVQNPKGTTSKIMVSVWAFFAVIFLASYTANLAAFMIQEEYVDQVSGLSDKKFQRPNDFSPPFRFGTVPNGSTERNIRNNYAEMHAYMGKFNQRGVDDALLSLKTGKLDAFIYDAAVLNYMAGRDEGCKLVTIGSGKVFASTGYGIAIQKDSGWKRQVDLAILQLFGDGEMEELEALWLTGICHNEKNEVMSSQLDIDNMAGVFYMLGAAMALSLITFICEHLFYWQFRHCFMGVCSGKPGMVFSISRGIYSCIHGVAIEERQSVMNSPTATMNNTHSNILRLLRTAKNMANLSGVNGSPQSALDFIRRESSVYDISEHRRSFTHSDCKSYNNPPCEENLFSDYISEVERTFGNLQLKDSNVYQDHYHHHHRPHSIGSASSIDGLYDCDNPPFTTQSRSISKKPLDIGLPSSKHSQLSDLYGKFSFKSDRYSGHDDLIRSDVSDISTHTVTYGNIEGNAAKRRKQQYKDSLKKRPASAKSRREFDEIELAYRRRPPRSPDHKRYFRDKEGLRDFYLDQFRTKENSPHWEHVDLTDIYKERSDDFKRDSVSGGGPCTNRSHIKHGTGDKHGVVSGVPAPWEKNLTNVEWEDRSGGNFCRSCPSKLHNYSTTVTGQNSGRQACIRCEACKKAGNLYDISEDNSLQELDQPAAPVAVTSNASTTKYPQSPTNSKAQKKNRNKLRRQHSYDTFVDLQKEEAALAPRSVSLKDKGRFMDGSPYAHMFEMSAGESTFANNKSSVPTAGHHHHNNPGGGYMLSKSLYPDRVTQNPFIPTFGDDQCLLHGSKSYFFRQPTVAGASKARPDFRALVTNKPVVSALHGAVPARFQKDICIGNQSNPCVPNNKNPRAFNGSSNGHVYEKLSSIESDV

Row | Structure (SMILES) | inhibition at 10 µM
1 | Cc1ccc(Oc2ccc(CN3C(=O)CCC3C)cc2)cc1 (centres unmarked) [Example 1, 5-methyl-1-{[4-(4-methylphenoxy)phenyl]methyl}pyrrolidin-2-one] | 99%
2 | Cc1ccc(Oc2cnc(CN3C(=O)CCC3C)cn2)cc1 (centres unmarked) [Example 4, 5-methyl-1-{[5-(4-methylphenoxy)pyrazin-2-yl]methyl}yrrolidin-2-one] | 93%
3 | Cc1ccc(Oc2ncc(CN3C(=O)CCC3C)cn2)cc1 (centres unmarked) [Example 5, 5-methyl-1-{[2-(4-methylphenoxy)pyrimidin-5-yl]methyl}pyrrolidin-2-one] | 91%
4 | Cc1ccc(Oc2ccc(CN3C(=O)C[C@H](O)[C@@H]3C)cc2)cc1 [Example 6, (4S,5S)-4-hydroxy-5-methyl-1-{[4-(4-methylphenoxy)phenyl]methyl}pyrrolidin-2-one] | 97%
5 | CC[C@H]1[C@@H](O)CC(=O)N1Cc1ccc(Oc2ccc(C)cc2)cc1 [Example 7, (4S,5S)-5-ethyl-4-hydroxy-1-{[4-(4-methylphenoxy)phenyl]methyl}pyrrolidin-2-one] | 98%
6 | Cc1ccc(Oc2cnc(CN3C(=O)CCC3C)nc2)cc1 (centres unmarked) [Example 8, 5-methyl-1{[5-(4-methylphenoxy)pyrimidin-2-yl]methyl}pyrrolidin-2-one] | 53%
7 | C[C@H]1[C@@H](O)CC(=O)N1Cc1ccc(Oc2ccc(F)cc2)cc1 [Example 9, (4S,5S)-1-{[4-(4-fluorophenoxy)phenyl]methyl}-4-hydroxy-5-methylpyrrolidin-2-one] | 96%
8 | Cc1ccc(Oc2ccc(CN3C(=O)C[C@@H](O)[C@@H]3C)cc2)cc1 [Example 10, (4R,5S)-4-hydroxy-5-methyl-1-{[4-(4-methylphenoxy)phenyl]methyl}pyrrolidin-2-one] | 94%
9 | Cc1ccc(Oc2ccc(CN3C(=O)C[C@H](O)[C@H]3C)cc2)cc1 [Example 11, (4S,5R)-4-hydroxy-5-methyl-1-{[4-(4-methylphenoxy)pheny]methyl}pyrrolidin-2-one] | 91%
10 | Cc1ccc(Oc2ccc(CN3C(=O)C[C@@H](O)[C@H]3C)cc2)cc1 [Example 12, (4R,5R)-4-hydroxy-5-methyl-1-{[4-(4-methylphenoxy)pheny]methyl}pyrrolidin-2-one] | 93%
11 | Cc1ccc(Oc2ccc(CN3C(=O)C[C@H](O)[C@@H]3C)cn2)cc1 [Example 13, (4S,5S)-4-hydroxy-5-methyl-1-{[6-(4-methylphenoxy)pyridin-3-yl]methyl}pyrrolidin-2-one] | 97%
12 | Cc1ccc(Oc2ncc(CN3C(=O)C[C@H](O)[C@@H]3C)cn2)cc1 [Example 15, (4S,5S)-4-hydroxy-5-methyl-1-{[2-(4-methylphenoxy)pyrimidin-5-yl]methyl}pyrrolidin-2-one] | 90%
13 | Cc1ccc(Oc2ccc(CN3C(=O)C[C@H](O)[C@@H]3C)nc2)cc1 [Example 16, (4S,5S)-4-hydroxy-5-methyl-1-{[5-(4-methylphenoxy)pyridin-2-yl]methyl}pyrrolidin-2-one] | 95%
14 | Cc1ccc(Oc2ccc(CN3C(=O)OC[C@@H]3C)cc2)cc1 [Example 18, (4S)-4-methy-3-{[4-(4-methylphenoxy)phenyl]methyl}1,3-oxazolidin-2-one] | 98%
15 | Cc1ccc(Oc2cnc(CN3C(=O)C[C@H](O)[C@@H]3C)cn2)cc1 [Example 19, (4S,5S)-4-hydroxy-5-methyl-1-{[5-(4-methylphenoxy)pyrazin-2-yl]methyl}pyrrolidin-2-one] | 82%
16 | Cc1ccc(Oc2ccc(CN3C(=O)OC[C@@H]3C)cn2)cc1 [Example 20, (4S)-4-methyl-3-{[6-(4-methylphenoxy)pyridin-3-yl]methyl}-1,3-oxazolidin-2-one] | 97%
17 | Cc1ccc(Oc2ccc(CN3C(=O)CC[C@@H]3C)cn2)cc1 [Example 21, (5S)-5-methyl-1-{[6-(4-methylphenoxy)pyridin-3-yl]methyl}pyrrolidin-2-one] | 98%
18 | Cc1ccc(Oc2ncc(CN3C(=O)CC[C@@H]3C)cn2)cc1 [Example 22, (5S)-5-methyl-1-{[2-(4-methylphenoxy)pyrimidin-5-yl]methyl}pyrrolidin-2-one] | 95%

Further lines, results first:

Row | inhibition at 10 µM | Structure (SMILES)
19 | 94% | Cc1ccc(Oc2ncc(CN3C(=O)OC[C@@H]3C)cn2)c(F)c1 [Example 23, (4S)-3-{[2-(2-fluoro-4-methylphenoxy)pyrimidin-5-yl]methyl}-4-methyl-1,3-oxazolidin-2-one]
20 | 93% | C[C@H]1COC(=O)N1Cc1cnc(Oc2c(F)cc(F)cc2F)nc1 [Example 24, (4S)-4-methyl-3-{[2-(2,4,6-trifluorophenoxy)pyrimidin-5-yl]methyl}-1,3-oxazolidin-2-one]
21 | 96% | Cc1ccc(Oc2ccc(CN3C(=O)OC[C@@H]3C)cn2)c(F)c1 [Example 25, (4S)-3-{[6-(2-fluoro-4-methylphenoxy)pyridin-3-y]methyl}-4-methyl-1,3-oxazolidin-2-one]
22 | 97% | Cc1ccc(Oc2ccc(CN3C(=O)C[C@H](O)[C@@H]3C)cn2)c(F)c1 [Example 26, (4S,5S)-1-{[6-(2-fluoro-4-methylphenoxy)pyridin-3-yl]methyl}-4-hydroxy-5-methylpyrrolidin-2-one]
23 | 97% | C[C@H]1[C@@H](O)CC(=O)N1Cc1ccc(Oc2c(F)cc(F)cc2F)nc1 [Example 27, (4S,5S)-4-hydroxy-5-methyl-1-{[6-(2,4,6-trifluorophenoxy)pyridin-3-yl]methyl}pyrrolidin-2-one]
24 | 96% | C[C@H]1COC(=O)N1Cc1ccc(Oc2c(F)cc(F)cc2F)nc1 [Example 28, (4S)-4-methyl-3-{[6-(2,4,6-trifluorophenoxy)pyridin-3-yl]methyl}-1,3-oxazolidin-2-one]
25 | 93% | Cc1ccc(Oc2ccc(CN3C(=O)CCC3C(F)(F)F)cn2)cc1 (centres unmarked) [Example 29, 1-{[6-(4-methylphenoxy)pyridin-3-yl]methyl}-5-(trifluoromethyl)pyrrolidin-2-one]
26 | 90% | Cc1ccc(Oc2ncc(CN3C(=O)OC[C@@H]3C)cn2)cc1 [Example 30, (4S)-4-methyl-3-{[2-(4-methylphenoxy)pyrimidin-5-yl]methyl}-1,3-oxazolidin-2-one]
27 | 97% | Cc1cc(F)c(Oc2ccc(CN3C(=O)C[C@H](O)[C@@H]3C)cn2)c(F)c1 [Example 31, (4S,5S)-1{[-6-(2,6-difluoro-4-methylphenoxy)pyridin-3-yl]methyl}4-hydroxy-5-methylpyrrolidin-2-one]
28 | 92% | Cc1cc(F)c(Oc2ncc(CN3C(=O)OC[C@@H]3C)cn2)c(F)c1 [Example 32, (4S)-3-{[2-(2,6-difluoro-4-methylphenoxy)pyrimidin-5-yl]methyl}-4-methyl-1,3-oxazolidin-2-one]
29 | 97% | C[C@H]1CNC(=O)N1Cc1ccc(Oc2c(F)cc(F)cc2F)nc1 [Example 33, (5S)-5-methyl-1-{[6-(2,4,6-trifluorophenoxy)pyridin-3-yl]methyl}imidazolidin-2-one]

same assay, conditions: final concentration 10 μM; glutamic acid and glycine induced Ca2+ influx, HEK 293 cells expressing human GRIN1 and GRIN2B

Row | Structure (SMILES) | % inhibited(10 μM)
30 | Cc1ccc(Oc2ccc(CN3C(=O)C[C@H](O)[C@@H]3C)cn2)cc1.Cl [Example 14, (4S,5S)-4-hydroxy-5-methyl-1-{[6-(4-methylphenoxy)pyridin-3-yl]methyl}pyrrolidin-2-one] | 96%

same assay, conditions: final concentration 10 μM; glutamic acid and glycine induced Ca2+ influx, HEK 293 cells expressing human GRIN1 and GRIN2B; 10 µM

Row | Structure (SMILES) | % inhibited(10 μM)
31 | Cc1ccc(Oc2ccc(CN3C(=O)CCC3C)cc2)cc1 (single isomer, unassigned) [Example 2, 5-methyl-1-{[4-(4-methylphenoxy)pheny]methyl}pyrrolidin-2-one (optical isomer)] | 98%
32 | Cc1ccc(Oc2ccc(CN3C(=O)CCC3C)cc2)cc1 (single isomer, unassigned) [Example 3, 5-methyl-1-{[4-(4-methylphenoxy)phenyl]methyl}pyrrolidin-2-one (optical isomer)] | 99%
